We go through two compounds from patent US5892029A, “3-hydroxy-2(1H)-pyridinone chelating agents” (priority 1997, dated 1999).

Data set [1] in a line: Promoting excretion of 238Pu(IV) in mice by injected ligands (Table 3). The format is in vivo. As to conditions: 30 μmol/kg i.p. The source says:
Animal studies were completed using methods detailed in Radiation Protection Dosimetry, 1994, 53, 305: P. W. Durbin et al., "In Vivo Chelation of Am(III), Pu(IV), Np(V) and U(VI) in Mice by TREN-(Me-3,2-HOPO)"; Radiation Protection Dosimetry, 1989, 17, 351: P. W. Durbin et al., "Removal of ^238 Pu(IV) from Mice by Polycatechoylate, -Hydroxamate or -Hydroxypyridinonate Ligands"; Radiation Research, 1984, 99, 85: P. W. Durbin et al., "Specific Sequestering Agents for the Actinides . . . "; Radiation Research, 1984, 99, 106: P. W. Durbin et al., "Removal of Pu and Am from Beagles and Mice . . . "; Radiation Research, 1980, 81, 170: R. D. Lloyd et al., and P. W. Durbin et al., "Specific Sequestering Agents for the Actinides . . . ". The foregoing articles are hereby incorporated by reference.
Radionuclides used in the animal studies came from a variety of sources. The ^238 Pu(IV) citrate and ^241 Am(III) citrate solutions were prepared for animal injection by 8- to 10-fold dilution with 0.14M NaC1 (pH 4) of concentrated stock solutions (0.08M sodium citrate buffer) that had been held in frozen storage at Lawrence Berkeley Laboratory (hereinafter LBL) for several years. [The ^238 Pu(IV) was originally obtained from D. R. Atherton at the University of Utah Radiobiology Laboratory, Salt Lake City. The ^241 Am(III) solution had been obtained many years earlier from the LBL Actinide Chemistry group.]
The novel chelating agents of the present invention were tested for their effectiveness in promoting excretion of ^238 Pu(IV) in mice by injected ligands as follows. Mice, in groups of five, each received an intravenous injection of 1850 Bq^238 Pu(IV) in 0.2 mL of citrate buffer. One hour later, 30 μmol/kg of ligand was injected intraperitoneally in 0.5 mL of saline. The mice were killed 24 hours after the Pu injection, frozen, and dissected after partial thawing. The ^238 Pu in skeleton, soft tissues, and separated excreta was determined by counting the ^234 U L x-rays. […]

Data set [2] is classed as in vivo, mice. The conditions noted are these: for body weight / kidney weight / plasma urea N: mean ± SD. The protocol:
The test of acute toxicity of these novel ligands was carried out as follows. […] The ligand was dissolved in 0.5 to 1.0 ml of saline at pH 7 to 8. After a period of observation, the mice were killed, selected tissues were removed and fixed for histopathological examination,and unusual findings at autopsy were recorded.

The conditions of data set [3]: Fe(III); background; cited from earlier work.
Setting [4] is: protocol I: 100 μmol/kg × 10 daily i.p., 11 d.
Setting [5] is: protocol I: 100 μmol/kg × 10 daily i.p., 21 d.
The mark [6] stands for this setting: protocol II: 500 μmol/kg × 2 in 8 h i.p., 11 d.

Structures are written as SMILES. Where two headings read alike, the source gives them in different places.

In the case of `Cn1ccc(C(=O)NCCOCCNC(=O)c2ccn(C)c(=O)c2O)c(O)c1=O` [5-LI-O-Me-3,2-HOPO, 1,5-bis[(3-hydroxy-1-methyl-2-oxo-1,2-dihydro-pyridin-4-yl)carboxamido]-3-oxypentane], in data set [1], the “effectiveness of Pu removal, injected (in words)” value was “as effective or more effective than the hexadentate and octadentate chelating agents”. For the same compound, the “toxicity / mortality (in words)” value in data set [2] (mouse, in vivo) was “low toxicity”. Also, the body weight in data set [2] (setting [4]) was determined as 103 ± 5 percent control; in data set [2] (setting [5]), 101 ± 5 percent control; in data set [2] (setting [6]), 100 ± 2 percent control. For the same compound, the kidney weight turned out to be 100 ± 19 percent control in data set [2] (setting [4]), 111 ± 5 percent control in data set [2] (setting [5]) and 108 ± 10 percent control in data set [2] (setting [6]). In addition, the entries for the “plasma urea N” value in data set [2] (setting [4]), in data set [2] (setting [5]) and in data set [2] (setting [6]) were 83 ± 5 percent control, 86 ± 18 percent control and 77 ± 10 percent control, respectively. Moreover, the no. of survivors stood at 5 in data set [2] (protocol I: 100 μmol/kg × 10 daily i.p., 11 d, of 5 mice); 5 in data set [2] (protocol I: 100 μmol/kg × 10 daily i.p., 21 d, of 5 mice); 110 in data set [2] (protocol II: 500 μmol/kg × 2 in 8 h i.p., 11 d, of 5 (5-LI) or 10 (5-LI-O) mice).
On to `O=C(N[C@H]1COC(=O)[C@@H](NC(=O)c2cccc(O)c2O)COC(=O)[C@@H](NC(=O)c2cccc(O)c2O)COC1=O)c1cccc(O)c1O` [enterobactin], for which, in data set [3], the “formation constant Kf” value is “≈ 10^49” and the pM is reported as 35.5.
